Laboratory results taken from patent publication US20240199692A1 (priority 2019, published 2024).
*1 amine or outer side, *2 acyl side, *3 side chain or, on linkers, in order; H or OH if unused. Where a SMILES comes first, the peptide text is derived from it. [ ]: non-standard residue; d: D form. The star is where a group is joined. Phenylsulfonyl(4-anisamido) = COc1ccc(C(=O)Nc2ccc(S(=O)(=O)*)cc2)cc1; Benzoyl(4-(4-EtNHCO-PhO)) = CCNC(=O)c1ccc(Oc2ccc(C(=O)*)cc2)cc1; Benzoyl(4-O-C6H4-4-CONHMe) = CNC(=O)c1ccc(Oc2ccc(C(=O)*)cc2)cc1; Benzoyl(4-OPh(4-CONH2)) = NC(=O)c1ccc(Oc2ccc(C(=O)*)cc2)cc1; X11 = O=C(O)CCCCNC(=O)c1ccc(Oc2ccc(C(=O)*)cc2)cc1; X3 = O=C(Nc1ccc(S(=O)(=O)*)cc1)c1ccc(OC2CC2)cc1; X19 = O=C(O)CNC(=O)c1ccc(Oc2ccc(C(=O)*)cc2)cc1; Benzoyl(4-OPh) = O=C(c1ccc(Oc2ccccc2)cc1)*; d(γGlu) = O=C(O)[C@@H](CCC(=O)[*:2])N[*:1]; d(βAsp) = O=C(O)[C@@H](CC(=O)[*:2])N[*:1]; X5 = O=S(=O)(c1ccc(-c2ccc(CO)cc2)cc1)*; εLys = N[C@@H](CCCCN[*:1])C(=O)[*:2]; NMeGABA = CN(CCCC(=O)[*:2])[*:1]; NMeI = CC[C@H](C)[C@H](NC)C(=O)O; NMeT = CN[C@H](C(=O)O)[C@@H](C)O; NMeE = CN[C@@H](CCC(=O)O)C(=O)O; NMeN = CN[C@@H](CC(N)=O)C(=O)O; NMeM = CN[C@@H](CCSC)C(=O)O; NMeV = CN[C@H](C(=O)O)C(C)C; β3hP = O=C(O)C[C@@H]1CCCN1; Orn = NCCC[C@H](N)C(=O)O; Dab = NCC[C@H](N)C(=O)O; Dap = NC[C@H](N)C(=O)O; Aib = CC(C)(N)C(=O)O; Ahx = NCCCCCC(=O)O; Ava = NCCCCC(=O)O; GABA = NCCCC(=O)O

target: T1, MMP2 (Homo sapiens, UniProt P08253); experiment: Inhibitory effects on human MMP2 (Method 1), enzyme assay with MOCAc-Pro-Leu-Gly-Leu-A2pr(Dnp)-Ala-Arg-NH2 substrate, 96-well; format: biochemical; conditions: Test Example No. 1-1 (Method 1, 96-well microplate); read-out: Human MMP2, IC50
T1 sequence (P08253 110-660): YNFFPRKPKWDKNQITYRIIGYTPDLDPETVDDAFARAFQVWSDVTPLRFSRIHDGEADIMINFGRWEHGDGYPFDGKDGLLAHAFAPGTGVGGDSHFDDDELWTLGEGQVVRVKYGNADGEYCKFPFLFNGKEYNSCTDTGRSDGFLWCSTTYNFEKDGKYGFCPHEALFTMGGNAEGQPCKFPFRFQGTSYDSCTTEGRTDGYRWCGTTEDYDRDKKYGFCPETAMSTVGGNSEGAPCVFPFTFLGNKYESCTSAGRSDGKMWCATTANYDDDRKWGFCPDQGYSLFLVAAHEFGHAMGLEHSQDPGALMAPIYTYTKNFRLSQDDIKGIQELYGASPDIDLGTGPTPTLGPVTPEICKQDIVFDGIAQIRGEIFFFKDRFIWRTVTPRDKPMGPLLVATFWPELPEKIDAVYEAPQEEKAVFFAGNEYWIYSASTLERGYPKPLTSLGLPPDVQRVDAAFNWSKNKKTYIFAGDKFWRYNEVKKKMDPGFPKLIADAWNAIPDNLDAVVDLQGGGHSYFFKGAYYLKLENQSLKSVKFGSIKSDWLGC
Experimental: In a reaction solution [50 mmol/L Tris-HCl (pH 7.5), 150 mmol/L NaCl, 10 mmol/L CaCl2, 0.05% Brij L23], 100 μg/mL human recombinant MMP2 enzyme and 1 mmol/L 4-Aminophenylmercuric acetate were mixed together, and reacted at 37° C. for 60 minutes. The human MMP2 activated through the reaction was poured into a 96-well microplate to reach a final concentration of 0.7 or 7 ng/mL.

`CC[C@H](C)[C@@H](C(=O)N1CCC[C@H]1CC(N)=O)N(C)C(=O)[C@H](CC(C)C)NC(=O)[C@H](CCN)NC(=O)[C@H](CC(=O)O)NC(=O)[C@H](CCC(=O)O)NC(=O)CCCCNC(=O)c1ccc(Oc2ccc(C(=O)NCCCCC(=O)O)cc2)cc1` [Compound 200] ({X11-Ava}-ED[Dab]L[NMeI][β3hP]-NH2; N-terminus assumed) and `CCNC(=O)c1ccc(Oc2ccc(C(=O)NCCCCCC(=O)N[C@@H](CCCNC(=N)N)C(=O)N[C@@H](CC(=O)O)C(=O)N[C@@H](CCN)C(=O)N[C@@H](CC(C)C)C(=O)N(C)[C@H](C(=O)N3CCC[C@H]3CC(N)=O)[C@@H](C)CC)cc2)cc1` [Compound 198] ({Benzoyl(4-(4-EtNHCO-PhO))-Ahx}-RD[Dab]L[NMeI][β3hP]-NH2; N-terminus assumed) are within 1.5-fold of each other in IC50: 7.4 nM for the first, 5.1 nM for the second.

First: CC[C@H](C)[C@@H](C(=O)NC(C)(C)C(N)=O)N(C)C(=O)[C@H](CC(C)C)NC(=O)[C@H](C)NC(=O)[C@H](CC(=O)O)NC(=O)[C@H](CC(N)=O)N(C)C(=O)CCCNC(=O)c1ccc(Oc2ccccc2)cc1 [Compound 98] ({Benzoyl(4-OPh)-GABA}-[NMeN]DAL[NMeI][Aib]-NH2; N-terminus assumed)
Second: CC[C@H](C)[C@@H](C(=O)N1CCC[C@H]1C(N)=O)N(C)C(=O)[C@H](CC(C)C)NC(=O)[C@H](C)NC(=O)[C@H](CC(=O)O)NC(=O)[C@H](CC(N)=O)N(C)C(=O)CCCN(C)C(=O)c1ccc(Oc2ccccc2)cc1 [Compound 103] ({Benzoyl(4-OPh)}-[NMeGABA][NMeN]DAL[NMeI]P-NH2; N-terminus assumed)
The IC50 of the first is 2.5-fold lower: 0.27 nM for the first, 0.67 nM for the second.

First: CNC(=O)c1ccc(Oc2ccc(C(=O)NCCCCC(=O)N[C@@H](CCCCN)C(=O)N[C@@H](CC(=O)O)C(=O)N[C@@H](CCN)C(=O)N[C@@H](CC(C)C)C(=O)N(C)[C@@H](CCC(=O)O)C(=O)N3CCC[C@H]3CC(N)=O)cc2)cc1 [Compound 184] ({Benzoyl(4-O-C6H4-4-CONHMe)-Ava}-KD[Dab]L[NMeE][β3hP]-NH2; N-terminus assumed)
Second: CC[C@H](C)[C@@H](C(=O)N1CCC[C@H]1CC(N)=O)N(C)C(=O)[C@H](CC(C)C)NC(=O)[C@H](CCN)NC(=O)[C@H](CC(=O)O)NC(=O)[C@H](CCCCN)NC(=O)CCCCCNC(=O)c1ccc(Oc2ccc(C(=O)NC)cc2)cc1 [Compound 187] ({Benzoyl(4-O-C6H4-4-CONHMe)-Ahx}-KD[Dab]L[NMeI][β3hP]-NH2; N-terminus assumed)
The IC50 of the first is 4.6-fold lower: 0.61 nM for the first, 2.8 nM for the second.

Compared with `CC[C@H](C)[C@@H](C(=O)N1CCC[C@H]1C(N)=O)N(C)C(=O)[C@H](CC(C)C)NC(=O)[C@H](CCN)NC(=O)[C@H](CC(=O)O)NC(=O)[C@H](CCSC)N(C)C(=O)CCCNC(=O)c1ccc(Oc2ccccc2)cc1` [Compound 134] ({Benzoyl(4-OPh)-GABA}-[NMeM]D[Dab]L[NMeI]P-NH2), `CC[C@H](C)[C@@H](C(=O)N1CCC[C@H]1C(N)=O)N(C)C(=O)[C@H](CC(C)C)NC(=O)[C@H](CCN)NC(=O)[C@H](CC(=O)O)NC(=O)[C@H](C(C)C)N(C)C(=O)CCCNC(=O)c1ccc(Oc2ccccc2)cc1` [Compound 135] ({Benzoyl(4-OPh)-GABA}-[NMeV]D[Dab]L[NMeI]P-NH2; N-terminus assumed) is 4.7-fold higher in IC50: 2 nM for the first, 9.3 nM for the second.

First: CSCC[C@H](NC(=O)[C@H](CC(C)C)NC(=O)[C@H](C)NC(=O)[C@H](CC(=O)O)NC(=O)[C@H](CC(N)=O)NC(=O)CCCCNC(=O)c1ccc(Oc2ccc(C(=O)NCC(=O)O)cc2)cc1)C(=O)N1CCC[C@H]1C(N)=O [Compound 178] ({X19-Ava}-NDALMP-NH2; N-terminus assumed)
Second: CC(C)C[C@H](NC(=O)[C@H](CCN)NC(=O)[C@H](CC(=O)O)NC(=O)[C@H](CC(N)=O)NC(=O)CCCNC(=O)c1ccc(Oc2ccccc2)cc1)C(=O)N(C)[C@@H](CCC(=O)O)C(=O)N1CCC[C@H]1C(N)=O [Compound 109] ({Benzoyl(4-OPh)-GABA}-ND[Dab]L[NMeE]P-NH2; N-terminus assumed)
The IC50 of the first is 5.1-fold higher: 3.6 nM for the first, 0.7 nM for the second. The second is the more potent here.

Going from `CC[C@H](C)[C@@H](C(=O)N1CCC[C@H]1CC(N)=O)N(C)C(=O)[C@H](CC(C)C)NC(=O)[C@H](CCN)NC(=O)[C@H](CC(=O)O)NC(=O)[C@H](CC(N)=O)N(C)C(=O)CCCNC(=O)c1ccc(Oc2ccccc2)cc1` [Compound 110] ({Benzoyl(4-OPh)-GABA}-[NMeN]D[Dab]L[NMeI][β3hP]-NH2; N-terminus assumed) to `CC[C@H](C)[C@@H](C(=O)N1CCC[C@H]1CC(N)=O)N(C)C(=O)[C@H](CC(C)C)NC(=O)[C@H](CCN)NC(=O)[C@H](CC(=O)O)NC(=O)[C@H](CCC(=O)O)NC(=O)CCCNC(=O)c1ccc(Oc2ccccc2)cc1` [Compound 147] ({Benzoyl(4-OPh)-GABA}-ED[Dab]L[NMeI][β3hP]-NH2; N-terminus assumed), the IC50 falls from 0.37 nM to 0.14 nM (2.6-fold). The second is the more potent here.

Going from `CC(C)C[C@H](NC(=O)[C@H](CN)NC(=O)C[C@@H](NS(=O)(=O)c1ccc(-c2ccc(CO)cc2)cc1)C(=O)O)C(=O)N(C)[C@@H](CCC(=O)O)C(=O)N1CCC[C@H]1CC(N)=O` [Compound 637] ({X5-d(βAsp)}-[Dap]L[NMeE][β3hP]-NH2; N-terminus assumed) to `CC[C@H](C)[C@@H](C(=O)N1CCC[C@H]1CC(N)=O)N(C)C(=O)[C@H](CC(C)C)NC(=O)[C@H](CN)NC(=O)C[C@@H](NS(=O)(=O)c1ccc(NC(=O)c2ccc(OC)cc2)cc1)C(=O)O` [Compound 692, N-[(2S)-3-amino-1-({(2S)-1-[{(2S,3S)-1-[(2S)-2-(2-amino-2-oxoethyl)pyrrolidin-1-yl]-3-methyl-1-oxopentan-2-yl}(methyl)amino]-4-methyl-1-oxopentan-2-yl}amino)-1-oxopropan-2-yl]-N^2-[4-(4-methoxybenzamido)benzene-1-sulfonyl]-D-asparagine] ({Phenylsulfonyl(4-anisamido)-d(βAsp)}-[Dap]L[NMeI][β3hP]-NH2), the IC50 falls from 0.48 nM to 0.068 nM (7.1-fold).

Compared with `CC[C@H](C)[C@@H](C(=O)N1CCC[C@H]1CC(N)=O)N(C)C(=O)[C@H](CC(C)C)NC(=O)[C@H](CCN)NC(=O)[C@H](CC(=O)O)NC(=O)[C@H](CCCNC(=N)N)NC(=O)CCCCCNC(=O)c1ccc(Oc2ccc(C(=O)NC)cc2)cc1` [Compound 191] ({Benzoyl(4-O-C6H4-4-CONHMe)-Ahx}-RD[Dab]L[NMeI][β3hP]-NH2; N-terminus assumed), `CC[C@H](C)[C@@H](C(=O)NCCCC[C@H](N)C(N)=O)N(C)C(=O)[C@H](CC(C)C)NC(=O)[C@H](CCN)NC(=O)[C@H](CC(=O)O)NC(=O)[C@H](NC(=O)[C@@H](N)CCCNC(=O)c1ccc(Oc2ccc(C(N)=O)cc2)cc1)[C@H](C)O` [Compound 554] (H-[Orn](Benzoyl(4-OPh(4-CONH2)))[dT]D[Dab]L[NMeI][εLys]-NH2) is 3-fold lower in IC50: 2.7 nM for the first, 0.89 nM for the second.

`CC[C@H](C)[C@@H](C(=O)N1CCC[C@H]1CC(N)=O)N(C)C(=O)[C@H](CC(C)C)NC(=O)[C@H](CCN)NC(=O)CC[C@@H](NS(=O)(=O)c1ccc(NC(=O)c2ccc(OC3CC3)cc2)cc1)C(=O)O` [Compound 700] ({X3-d(γGlu)}-[Dab]L[NMeI][β3hP]-NH2; N-terminus assumed) and `CC[C@H](C)[C@@H](C(=O)N1CCC[C@H]1C(N)=O)N(C)C(=O)[C@H](CC(C)C)NC(=O)[C@H](C)NC(=O)[C@H](CC(=O)O)NC(=O)[C@H]([C@@H](C)O)N(C)C(=O)CCCNC(=O)c1ccc(Oc2ccccc2)cc1` [Compound 131] ({Benzoyl(4-OPh)-GABA}-[NMeT]DAL[NMeI]P-NH2; N-terminus assumed) are within 1.5-fold of each other in IC50: 0.41 nM for the first, 0.36 nM for the second.
